pKd: −log10 of the molar value.

The source of these data is PMC7206685, “Interactions between host biogenic amines and sand fly salivary yellow-related proteins” (Parasites & Vectors, 2020).

This test addresses T1, PagSP04 (Phlebotomus argentipes, UniProt Q0ZSU5).
T1 construct: secreted recombinant protein from HEK293S GnTI- cells (pTW5sec); IMAC and size exclusion
T1 sequence (Q0ZSU5 19-398): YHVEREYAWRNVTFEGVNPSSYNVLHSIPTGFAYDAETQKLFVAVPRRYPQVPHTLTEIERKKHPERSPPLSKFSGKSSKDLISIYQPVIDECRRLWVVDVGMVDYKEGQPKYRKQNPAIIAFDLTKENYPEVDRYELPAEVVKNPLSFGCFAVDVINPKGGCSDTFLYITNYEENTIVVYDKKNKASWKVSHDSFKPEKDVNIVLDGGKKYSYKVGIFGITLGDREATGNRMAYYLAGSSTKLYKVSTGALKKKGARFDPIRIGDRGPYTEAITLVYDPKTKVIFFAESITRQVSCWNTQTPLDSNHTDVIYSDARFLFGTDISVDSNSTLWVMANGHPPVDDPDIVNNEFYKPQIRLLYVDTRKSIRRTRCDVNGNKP
The experiment in a line: microscale thermophoresis. Format: binding. The source says:
microscale thermophoresis on PagSP04
A general note: In MST a laser heats a spot of the sample, and binding alters the fluorescence response.

As a reminder, the pKd is the Kd on a negative log10 scale, so that one unit is a factor of ten. A higher pKd goes with a small Kd. `NCCc1c[nH]c2ccc(O)cc12` [Serotonin] gave a pKd of 7.06.

With `NCCc1c[nH]cn1` [Histamine], the pKd is 5.03.
